Experimental data published in ChEMBL document CHEMBL4507294, “Data for DCP probe MSD-CYP11B2” (2021).

Legend:
[1] = target: Ephrin type-A receptor 6 (Homo sapiens) (UniProt Q9UF33); details: Compound concentration 1000.0 nM
[2] = target: Serine/threonine-protein kinase NIM1 (Homo sapiens) (UniProt Q8IY84); details: Compound concentration 1000.0 nM
[3] = target: Activin receptor type-1B (Homo sapiens) (UniProt P36896); details: Compound concentration 1000.0 nM
[4] = target: Beta-1 adrenergic receptor (Homo sapiens, UniProt P08588); details: Compound concentration 10.0 uM
[5] = target: Mitogen-activated protein kinase kinase kinase 13 (Homo sapiens) (UniProt O43283); details: Compound concentration 1000.0 nM
[6] = tested on: Phosphatidylinositol 4,5-bisphosphate 3-kinase catalytic subunit alpha isoform (Homo sapiens), P42336 [E545A]; details: Compound concentration 1000.0 nM
[7] = target: Serine/threonine-protein kinase PknB (Mycobacterium tuberculosis) (UniProt P9WI81); details: Compound concentration 1000.0 nM
[8] = target: Mitogen-activated protein kinase 7 (Homo sapiens) (UniProt Q13164); details: Compound concentration 1000.0 nM
[9] = target: BDNF/NT-3 growth factors receptor (Homo sapiens) (UniProt Q16620); details: Compound concentration 1000.0 nM
[10] = tested on: Proto-oncogene tyrosine-protein kinase receptor Ret (Homo sapiens), P07949 [M918T]; details: Compound concentration 1000.0 nM
[11] = target: Cyclin-dependent kinase-like 1 (Homo sapiens) (UniProt Q00532); details: Compound concentration 1000.0 nM
[12] = tested on: Tyrosine-protein kinase ABL1 (Homo sapiens), P00519 [H396P]; details: Compound concentration 1000.0 nM
[13] = target: Serine/threonine-protein kinase 3 (Homo sapiens) (UniProt Q13188); details: Compound concentration 1000.0 nM
[14] = target: Serine/threonine-protein kinase RIO1 (Homo sapiens) (UniProt Q9BRS2); details: Compound concentration 1000.0 nM
[15] = target: SNF-related serine/threonine-protein kinase (Homo sapiens) (UniProt Q9NRH2); details: Compound concentration 1000.0 nM
[16] = target: cGMP-dependent protein kinase 1 (Homo sapiens) (UniProt Q13976); details: Compound concentration 1000.0 nM
[17] = target: Cyclin-dependent kinase 16 (Homo sapiens) (UniProt Q00536); details: Compound concentration 1000.0 nM
[18] = target: Serine/threonine-protein kinase 32C (Homo sapiens) (UniProt Q86UX6); details: Compound concentration 1000.0 nM
[19] = target: Tyrosine-protein kinase Fer (Homo sapiens) (UniProt P16591); details: Compound concentration 1000.0 nM
[20] = target: Serine/threonine-protein kinase RIO3 (Homo sapiens) (UniProt O14730); details: Compound concentration 1000.0 nM
[21] = target: RAF proto-oncogene serine/threonine-protein kinase (Homo sapiens) (UniProt P04049); details: Compound concentration 1000.0 nM
[22] = target: Cyclin-dependent kinase 15 (Homo sapiens) (UniProt Q96Q40); details: Compound concentration 1000.0 nM
[23] = tested on: Mast/stem cell growth factor receptor Kit (Homo sapiens), P10721 [L576P]; details: Compound concentration 1000.0 nM
[24] = target: Serine/threonine-protein kinase PAK 1 (Homo sapiens) (UniProt Q13153); details: Compound concentration 1000.0 nM
[25] = target: Mu-type opioid receptor (Homo sapiens) (UniProt P35372); details: Compound concentration 10.0 uM
[26] = target: Homeodomain-interacting protein kinase 1 (Homo sapiens) (UniProt Q86Z02); details: Compound concentration 1000.0 nM
[27] = target: Ribosomal protein S6 kinase alpha-2 (Homo sapiens) (UniProt Q15349); details: Compound concentration 1000.0 nM
[28] = target: Serine/threonine-protein kinase 26 (Homo sapiens) (UniProt Q9P289); details: Compound concentration 1000.0 nM
[29] = target: Angiopoietin-1 receptor (Homo sapiens) (UniProt Q02763); details: Compound concentration 1000.0 nM
[30] = target: Serine/threonine-protein kinase 10 (Homo sapiens) (UniProt O94804); details: Compound concentration 1000.0 nM
[31] = target: Mitogen-activated protein kinase kinase kinase 2 (Homo sapiens) (UniProt Q9Y2U5); details: Compound concentration 1000.0 nM
[32] = target: RAC-gamma serine/threonine-protein kinase (Homo sapiens) (UniProt Q9Y243); details: Compound concentration 1000.0 nM
[33] = target: Mitogen-activated protein kinase kinase kinase kinase 3 (Homo sapiens) (UniProt Q8IVH8); details: Compound concentration 1000.0 nM
[34] = target: Non-receptor tyrosine-protein kinase TYK2 (Homo sapiens) (UniProt P29597); details: Compound concentration 1000.0 nM
[35] = target: Serine/threonine-protein kinase SIK1 (Homo sapiens) (UniProt P57059); details: Compound concentration 1000.0 nM
[36] = target: 5-hydroxytryptamine receptor 5A (Homo sapiens) (UniProt P47898); details: Compound concentration 10.0 uM
[37] = target: Serine/threonine-protein kinase 25 (Homo sapiens) (UniProt O00506); details: Compound concentration 1000.0 nM
[38] = target: Tyrosine-protein kinase JAK3 (Homo sapiens) (UniProt P52333); details: Compound concentration 1000.0 nM
[39] = target: Receptor-interacting serine/threonine-protein kinase 1 (Homo sapiens) (UniProt Q13546); details: Compound concentration 1000.0 nM
[40] = target: Dual specificity protein kinase CLK3 (Homo sapiens) (UniProt P49761); details: Compound concentration 1000.0 nM

Phosphatidylinositol 4,5-bisphosphate 3-kinase catalytic subunit alpha isoform (Homo sapiens), P42336 [E545A], sequence (P42336 whole entry E545A, canonical isoform): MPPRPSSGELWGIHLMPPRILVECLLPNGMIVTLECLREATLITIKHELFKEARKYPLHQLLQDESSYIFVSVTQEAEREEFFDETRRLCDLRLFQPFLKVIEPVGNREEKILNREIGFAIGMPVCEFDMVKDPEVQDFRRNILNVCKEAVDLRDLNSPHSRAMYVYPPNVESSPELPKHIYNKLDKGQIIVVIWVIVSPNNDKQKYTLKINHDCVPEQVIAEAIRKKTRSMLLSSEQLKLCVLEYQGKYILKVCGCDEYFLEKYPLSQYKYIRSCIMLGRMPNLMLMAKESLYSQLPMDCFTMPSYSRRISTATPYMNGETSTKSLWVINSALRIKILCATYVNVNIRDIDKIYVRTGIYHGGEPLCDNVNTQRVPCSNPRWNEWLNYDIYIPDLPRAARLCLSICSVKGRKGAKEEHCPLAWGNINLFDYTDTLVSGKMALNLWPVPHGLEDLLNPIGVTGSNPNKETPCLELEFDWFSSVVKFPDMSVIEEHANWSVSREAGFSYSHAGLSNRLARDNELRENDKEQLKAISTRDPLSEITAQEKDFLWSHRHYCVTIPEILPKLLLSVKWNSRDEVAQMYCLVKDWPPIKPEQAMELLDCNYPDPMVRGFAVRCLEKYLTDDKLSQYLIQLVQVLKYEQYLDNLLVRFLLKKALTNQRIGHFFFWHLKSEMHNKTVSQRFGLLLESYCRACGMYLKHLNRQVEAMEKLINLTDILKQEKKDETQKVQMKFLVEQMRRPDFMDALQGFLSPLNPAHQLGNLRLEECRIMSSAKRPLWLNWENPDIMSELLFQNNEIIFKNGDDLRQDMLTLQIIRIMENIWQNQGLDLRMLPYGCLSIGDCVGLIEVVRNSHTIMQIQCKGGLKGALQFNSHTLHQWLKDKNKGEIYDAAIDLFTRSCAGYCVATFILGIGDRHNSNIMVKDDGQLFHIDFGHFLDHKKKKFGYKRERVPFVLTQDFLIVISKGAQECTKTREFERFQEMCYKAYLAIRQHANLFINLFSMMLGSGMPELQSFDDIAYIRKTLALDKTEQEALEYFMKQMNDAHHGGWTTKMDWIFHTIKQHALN
Ribosomal protein S6 kinase alpha-2 (Homo sapiens), sequence (Q15349 whole entry): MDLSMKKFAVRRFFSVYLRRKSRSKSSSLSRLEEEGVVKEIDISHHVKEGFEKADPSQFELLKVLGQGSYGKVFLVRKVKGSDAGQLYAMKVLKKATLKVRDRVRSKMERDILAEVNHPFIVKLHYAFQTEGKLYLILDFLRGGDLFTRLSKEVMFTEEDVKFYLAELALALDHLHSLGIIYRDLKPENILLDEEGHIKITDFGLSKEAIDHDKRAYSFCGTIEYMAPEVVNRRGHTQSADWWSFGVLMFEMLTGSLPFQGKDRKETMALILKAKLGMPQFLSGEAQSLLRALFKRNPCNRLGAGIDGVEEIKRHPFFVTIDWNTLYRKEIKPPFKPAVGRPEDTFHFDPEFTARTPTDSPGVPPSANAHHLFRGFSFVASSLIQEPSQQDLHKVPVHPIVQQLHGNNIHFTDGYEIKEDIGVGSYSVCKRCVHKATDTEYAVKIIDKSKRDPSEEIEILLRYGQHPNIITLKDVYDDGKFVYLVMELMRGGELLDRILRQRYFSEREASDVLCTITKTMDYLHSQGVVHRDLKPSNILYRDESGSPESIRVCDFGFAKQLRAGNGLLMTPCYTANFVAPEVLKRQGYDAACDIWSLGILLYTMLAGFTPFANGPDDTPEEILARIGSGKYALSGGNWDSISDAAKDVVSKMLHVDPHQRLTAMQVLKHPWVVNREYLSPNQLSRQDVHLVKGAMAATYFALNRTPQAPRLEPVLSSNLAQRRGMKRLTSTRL
Non-receptor tyrosine-protein kinase TYK2 (Homo sapiens), sequence (P29597 whole entry): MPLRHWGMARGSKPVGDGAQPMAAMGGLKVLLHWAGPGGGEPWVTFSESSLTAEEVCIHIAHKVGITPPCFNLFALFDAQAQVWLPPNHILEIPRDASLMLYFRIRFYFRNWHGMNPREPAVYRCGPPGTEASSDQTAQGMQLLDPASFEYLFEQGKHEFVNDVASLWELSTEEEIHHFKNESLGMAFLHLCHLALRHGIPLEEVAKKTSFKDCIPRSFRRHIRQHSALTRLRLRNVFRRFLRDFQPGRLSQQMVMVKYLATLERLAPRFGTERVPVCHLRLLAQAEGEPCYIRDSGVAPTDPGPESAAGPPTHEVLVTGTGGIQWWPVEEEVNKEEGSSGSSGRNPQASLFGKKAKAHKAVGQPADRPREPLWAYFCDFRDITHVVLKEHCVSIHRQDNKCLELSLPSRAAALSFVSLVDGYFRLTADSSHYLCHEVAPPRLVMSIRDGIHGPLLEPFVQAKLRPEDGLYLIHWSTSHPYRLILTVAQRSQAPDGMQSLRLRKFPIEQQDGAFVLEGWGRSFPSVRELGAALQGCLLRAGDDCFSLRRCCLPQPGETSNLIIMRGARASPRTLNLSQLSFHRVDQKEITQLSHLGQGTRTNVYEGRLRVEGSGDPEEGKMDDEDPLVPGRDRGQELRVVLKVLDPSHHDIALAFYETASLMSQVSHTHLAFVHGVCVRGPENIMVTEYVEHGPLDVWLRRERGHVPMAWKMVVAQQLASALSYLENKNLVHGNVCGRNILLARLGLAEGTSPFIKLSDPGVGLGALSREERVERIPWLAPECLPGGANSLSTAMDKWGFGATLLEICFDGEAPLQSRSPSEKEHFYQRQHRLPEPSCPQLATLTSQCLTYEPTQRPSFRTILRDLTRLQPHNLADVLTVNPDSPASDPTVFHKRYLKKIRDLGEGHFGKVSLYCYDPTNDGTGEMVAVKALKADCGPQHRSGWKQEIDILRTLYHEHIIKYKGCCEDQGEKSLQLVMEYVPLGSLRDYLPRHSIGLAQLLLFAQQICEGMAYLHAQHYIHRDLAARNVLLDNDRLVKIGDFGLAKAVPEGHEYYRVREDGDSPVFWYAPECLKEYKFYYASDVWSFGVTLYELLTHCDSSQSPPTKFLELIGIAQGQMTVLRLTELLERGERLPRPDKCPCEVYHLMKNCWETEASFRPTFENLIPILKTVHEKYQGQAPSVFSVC
Cyclin-dependent kinase-like 1 (Homo sapiens), sequence (Q00532 whole entry): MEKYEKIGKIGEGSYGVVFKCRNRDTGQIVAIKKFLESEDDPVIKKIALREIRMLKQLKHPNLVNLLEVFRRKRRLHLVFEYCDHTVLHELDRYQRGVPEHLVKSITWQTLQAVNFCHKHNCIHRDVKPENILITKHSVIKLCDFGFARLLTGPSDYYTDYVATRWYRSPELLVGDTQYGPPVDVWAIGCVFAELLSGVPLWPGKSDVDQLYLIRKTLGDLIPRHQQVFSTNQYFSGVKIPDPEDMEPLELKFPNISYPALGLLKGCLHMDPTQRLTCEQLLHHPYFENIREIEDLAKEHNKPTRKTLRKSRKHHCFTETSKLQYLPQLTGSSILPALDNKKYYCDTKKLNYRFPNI
RAC-gamma serine/threonine-protein kinase (Homo sapiens), sequence (Q9Y243 whole entry): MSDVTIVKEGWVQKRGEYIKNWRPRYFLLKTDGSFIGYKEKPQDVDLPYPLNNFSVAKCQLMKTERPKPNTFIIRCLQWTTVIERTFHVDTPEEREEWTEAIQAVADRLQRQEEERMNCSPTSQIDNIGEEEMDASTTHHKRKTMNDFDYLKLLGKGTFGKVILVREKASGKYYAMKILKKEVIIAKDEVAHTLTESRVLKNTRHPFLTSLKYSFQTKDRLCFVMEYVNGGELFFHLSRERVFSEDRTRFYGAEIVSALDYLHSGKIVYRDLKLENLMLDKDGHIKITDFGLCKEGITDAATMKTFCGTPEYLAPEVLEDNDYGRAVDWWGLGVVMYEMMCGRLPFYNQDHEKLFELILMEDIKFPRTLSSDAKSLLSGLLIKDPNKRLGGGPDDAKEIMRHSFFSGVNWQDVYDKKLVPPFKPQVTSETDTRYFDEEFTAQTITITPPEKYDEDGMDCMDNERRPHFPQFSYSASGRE
Proto-oncogene tyrosine-protein kinase receptor Ret (Homo sapiens), P07949 [M918T], sequence (P07949 whole entry M918T): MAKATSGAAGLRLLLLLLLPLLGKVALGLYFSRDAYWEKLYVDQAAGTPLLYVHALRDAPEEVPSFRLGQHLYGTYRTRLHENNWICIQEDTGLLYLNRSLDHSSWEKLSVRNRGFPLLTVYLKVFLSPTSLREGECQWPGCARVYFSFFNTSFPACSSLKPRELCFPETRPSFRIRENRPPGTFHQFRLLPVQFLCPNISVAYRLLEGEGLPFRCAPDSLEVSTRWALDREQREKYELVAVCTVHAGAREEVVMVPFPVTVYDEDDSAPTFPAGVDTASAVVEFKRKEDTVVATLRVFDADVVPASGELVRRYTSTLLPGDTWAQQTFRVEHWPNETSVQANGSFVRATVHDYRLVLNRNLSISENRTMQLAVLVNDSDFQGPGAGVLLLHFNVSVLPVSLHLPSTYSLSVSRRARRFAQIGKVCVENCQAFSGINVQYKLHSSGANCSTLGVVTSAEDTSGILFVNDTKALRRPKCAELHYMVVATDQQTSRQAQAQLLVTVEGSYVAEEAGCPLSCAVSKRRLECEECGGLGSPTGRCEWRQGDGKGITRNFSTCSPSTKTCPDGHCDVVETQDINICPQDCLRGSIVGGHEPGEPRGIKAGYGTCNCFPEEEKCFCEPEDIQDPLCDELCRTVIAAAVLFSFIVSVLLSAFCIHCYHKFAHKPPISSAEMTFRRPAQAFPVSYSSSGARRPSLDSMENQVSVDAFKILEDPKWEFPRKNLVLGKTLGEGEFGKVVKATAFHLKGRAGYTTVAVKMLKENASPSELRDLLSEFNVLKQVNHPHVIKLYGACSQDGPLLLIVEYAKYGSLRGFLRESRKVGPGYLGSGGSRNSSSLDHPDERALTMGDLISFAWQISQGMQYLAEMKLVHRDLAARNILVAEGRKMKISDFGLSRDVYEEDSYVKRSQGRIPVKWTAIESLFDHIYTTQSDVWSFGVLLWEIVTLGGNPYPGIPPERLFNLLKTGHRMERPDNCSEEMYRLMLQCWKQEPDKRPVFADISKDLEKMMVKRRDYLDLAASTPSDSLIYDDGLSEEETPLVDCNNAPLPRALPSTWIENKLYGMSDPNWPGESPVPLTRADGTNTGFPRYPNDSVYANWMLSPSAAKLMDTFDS

Structure (SMILES)	residual activity [1]	residual activity [2]	residual activity [3]	inhibition [4]	residual activity [5]	residual activity [6]	residual activity [7]	residual activity [8]	residual activity [9]	residual activity [10]	residual activity [11]	residual activity [12]	residual activity [13]	residual activity [14]	residual activity [15]	residual activity [16]	residual activity [17]	residual activity [18]	residual activity [19]	residual activity [20]	other results
FC(F)(F)c1ccc2c(c1)nc(-c1cccnc1)n2C1CC1 [MSD-CYP11B2-Negative-control]	100%	100%	98%	13.4%	100%	90%	100%	100%	100%	91%	91%	100%	94%	100%	82%	87%	100%	100%	100%	93%	residual activity [21]: 76%; residual activity [22]: 100%; residual activity [23]: 100%; residual activity [24]: 100%; inhibition [25]: -2.5%; residual activity [26]: 100%; residual activity [27]: 100%; residual activity [28]: 100%; residual activity [29]: 100%; residual activity [30]: 100%; residual activity [31]: 100%; residual activity [32]: 100%; residual activity [33]: 100%; residual activity [34]: 100%; residual activity [35]: 100%; inhibition [36]: -2.64%; residual activity [37]: 99%; residual activity [38]: 100%; residual activity [39]: 100%; residual activity [40]: 100%
CC(C)(O)c1cncc(-c2nc3ccc(F)cc3n2C2CC2)c1 [MSD-CYP11B2]	100%	100%	99%	59.4%	100%	90%	100%	100%	100%	100%	100%	100%	100%	100%	86%	78%	100%	100%	100%	100%	residual activity [21]: 83%; residual activity [22]: 84%; residual activity [23]: 100%; residual activity [24]: 100%; inhibition [25]: 0.18%; residual activity [26]: 97%; residual activity [27]: 100%; residual activity [28]: 100%; residual activity [29]: 93%; residual activity [30]: 100%; residual activity [31]: 100%; residual activity [32]: 100%; residual activity [33]: 100%; residual activity [34]: 100%; residual activity [35]: 100%; inhibition [36]: -9.57%; residual activity [37]: 100%; residual activity [38]: 100%; residual activity [39]: 100%; residual activity [40]: 100%
